In paper PMC11873045, “Phytochemical profiling and various biological activities of Phlomis tuberosa L” (Scientific Reports, 2025):

Legend:
α-glucosidase = α-glucosidase inhibition (PNPG); assay type: biochemical, Saccharomyces cerevisiae; settings: at 200 µg/mL
Procedure: 50 µL of phosphate buffer (0.01 M pH 6.9), 10 µL of sample solution, 50 µL of α-glucosidase from Saccharomyces cerevisiae in phosphate buffer (0.01 M pH 6.0) and 25 µL of PNPG (4-N-nitrophenyl-α-d-glucopyranoside) in phosphate buffer (0.01 M pH 6.9) were mixed in a 96-well microplate. Then the solution was incubated for 20 min at 37 °C.

α-amylase = molecular target: T1, α-amylase (Sus scrofa, UniProt P00690); assay: α-amylase inhibition (starch-iodine method); assay type: biochemical, porcine
T1 construct: host or cells: porcine pancreas
T1 sequence (P00690 16-511): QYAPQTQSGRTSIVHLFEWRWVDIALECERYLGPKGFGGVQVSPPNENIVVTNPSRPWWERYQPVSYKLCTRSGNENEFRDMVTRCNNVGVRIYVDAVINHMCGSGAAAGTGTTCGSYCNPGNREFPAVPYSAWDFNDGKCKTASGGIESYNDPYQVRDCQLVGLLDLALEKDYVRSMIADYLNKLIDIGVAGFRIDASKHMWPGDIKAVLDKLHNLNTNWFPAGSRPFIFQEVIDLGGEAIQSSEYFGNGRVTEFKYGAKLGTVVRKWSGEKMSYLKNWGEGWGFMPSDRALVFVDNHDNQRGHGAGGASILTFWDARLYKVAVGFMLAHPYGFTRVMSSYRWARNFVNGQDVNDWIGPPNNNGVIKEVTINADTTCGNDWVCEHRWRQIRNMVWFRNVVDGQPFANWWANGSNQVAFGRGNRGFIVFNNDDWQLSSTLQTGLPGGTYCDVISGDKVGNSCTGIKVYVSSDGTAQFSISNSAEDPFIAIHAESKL
Procedure: The α-amylase inhibitory activity was evaluated by using starch-iodine method[30]. The enzyme α-amylase from porcine pancreas was used and enzyme solution was prepared with phosphate buffer (20 mM pH = 6.9 phosphate buffer prepared with 6 mM NaCl). Then, 50 µL of α-amylase and 25 µL of sample solutions were mixed in a 96-well microplate. The mixture was pre-incubated for 10 min at 37 °C. Then, 50 µL of starch solution (0.05%) was added and incubated for 10 min at 37 °C. Following incubation, the reaction was completed by adding HCl (0.1 M, 25 µL) and Lugol (100 µL) solutions, and the absorbance was recorded at 565 nm.
(§1) IC50 values were calculated using a graph plotted between concentration (µg/mL) and percentage inhibition (%).

[1] = ABTS cation radical scavenging assay; settings: for ABTS assay Inhibition (%): at 200 µg/mL
Procedure: (§2) Antioxidant activities of all extracts were assessed by using different methods including β-carotene-linoleic acid assay, DPPH assay, ABTS assay, CUPRAC assay and Metal chelating assay. […] The DPPH assay was performed by using a spectrophotometer according to typical methods documented previously[23]. The ABTS^+assay was carried out as described previously by Re et al., (1999)[24]. The cupric reducing antioxidant capacity (CUPRAC) was evaluated by following the method published Apak et al., (2004)[25]. α-tocopherol and butylated hydroxy anisole (BHA) were used as antioxidant standards to compare the β-carotene-linoleic acid, DPPH, ABTS and CUPRAC assays. The metal chelating assay of extracts for Fe^+2 was performed by using a spectrophotometer as the method reported by Tel et al., (2012)[26]. Ethylenediaminetetraacetic acid (EDTA) was used as a standard.
(§3) IC50 values were calculated using a graph plotted between concentration (µg/mL) and percentage inhibition (%). A graph that plotted absorbance against concentration (µg/mL) was used to determine A0.50 values.

[2] = DPPH free radical scavenging assay; settings: for DPPH assay Inhibition (%): at 200 µg/mL
Procedure: as §2, §3

[3] = CUPRAC (cupric reducing antioxidant capacity) assay; settings: for CUPRAC assay Absorbance: at 200 µg/mL; for CUPRAC assay A0.50: concentration giving absorbance of 0.50
Procedure: as §2, §3

[4] = β-carotene-linoleic acid assay (inhibition of lipid peroxidation); settings: for β-Carotene-linoleic acid assay Inhibition (%): at 200 µg/mL
Procedure: as §2, §3

BChE = molecular target: T2, BChE (Equus caballus, UniProt P81908); assay: Butyrylcholinesterase inhibition (DTNB spectrophotometric); assay type: biochemical, horse
T2 construct: host or cells: equine serum
T2 sequence (P81908 whole entry): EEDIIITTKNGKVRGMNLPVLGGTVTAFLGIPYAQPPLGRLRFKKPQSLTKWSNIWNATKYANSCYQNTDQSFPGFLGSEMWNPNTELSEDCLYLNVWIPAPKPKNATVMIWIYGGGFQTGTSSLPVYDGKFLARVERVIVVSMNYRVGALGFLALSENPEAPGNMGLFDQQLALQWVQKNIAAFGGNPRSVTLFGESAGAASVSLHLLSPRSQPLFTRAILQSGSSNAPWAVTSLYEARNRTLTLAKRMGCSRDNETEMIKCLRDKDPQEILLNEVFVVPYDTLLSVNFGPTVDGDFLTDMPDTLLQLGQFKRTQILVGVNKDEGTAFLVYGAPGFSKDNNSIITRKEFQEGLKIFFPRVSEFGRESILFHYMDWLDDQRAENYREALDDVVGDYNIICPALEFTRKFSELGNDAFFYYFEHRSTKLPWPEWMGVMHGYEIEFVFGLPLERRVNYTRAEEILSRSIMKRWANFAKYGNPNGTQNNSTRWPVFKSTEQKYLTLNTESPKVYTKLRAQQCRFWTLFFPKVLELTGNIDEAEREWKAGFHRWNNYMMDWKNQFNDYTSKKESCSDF
Procedure: The inhibitory activities of acetylcholinesterase and butyrylcholinesterase enzymes of the extracts were determined using spectrophotometer following the protocol described by Deveci et al., (2019) with slight modifications[27]. Acetylthiocholine iodide and butyrylthiocholine chloride were utilized as reaction substrates, while AChE from electric eels and BChE from horse serum were applied. Employing DTNB (5,5′-Dithio-bis(2-nitrobenzoic) acid), the cholinesterase activity was measured. In a nutshell, 130 µL of 100 mM sodium phosphate buffer (pH 8.0), 10 µL of sample solution at different concentrations, and 20 µL of enzyme (AChE or BChE) solution in buffer were mixed and incubated for 15 min at 25 °C, and 20 µL of 0.5 mM DTNB was added. Following that, 0.71 mM, 20 µL of acetylthiocholine iodide or 0.2 mM, 20 µL of butyrylthiocholine chloride were added to initiate the reaction. Utilizing a 96-well microplate reader, the hydrolysis of these substrates was observed spectrophotometrically by the formation of a yellow 5-thio-2-nitrobenzoate anion at a wavelength of 412 nm.
as §3

tyrosinase = assay: Tyrosinase inhibition (L-DOPA substrate); assay type: biochemical; settings: at 200 µg/mL
Procedure: Tyrosinase enzyme inhibitory activity was measured by the spectrophotometric method as described by Masuda et al., (2005)[29]. L-DOPA was utilized as substrate of the reaction. 150 µL of sodium phosphate buffer (pH 6.8, 100 mM), 10 µL of sample and 20 µL of tyrosinase enzyme solution in buffer were mixed and incubated for 10 min at 37 °C. Following incubation, 20 µL of L-DOPA was added. The absorbances in a 96-well microplate were monitored at 475 nm after 10 min of incubation at 37 °C.
as §1

urease = urease (Canavalia ensiformis, UniProt P07374); assay type: biochemical, jack bean
Sequence of urease (P07374 whole entry, looked up): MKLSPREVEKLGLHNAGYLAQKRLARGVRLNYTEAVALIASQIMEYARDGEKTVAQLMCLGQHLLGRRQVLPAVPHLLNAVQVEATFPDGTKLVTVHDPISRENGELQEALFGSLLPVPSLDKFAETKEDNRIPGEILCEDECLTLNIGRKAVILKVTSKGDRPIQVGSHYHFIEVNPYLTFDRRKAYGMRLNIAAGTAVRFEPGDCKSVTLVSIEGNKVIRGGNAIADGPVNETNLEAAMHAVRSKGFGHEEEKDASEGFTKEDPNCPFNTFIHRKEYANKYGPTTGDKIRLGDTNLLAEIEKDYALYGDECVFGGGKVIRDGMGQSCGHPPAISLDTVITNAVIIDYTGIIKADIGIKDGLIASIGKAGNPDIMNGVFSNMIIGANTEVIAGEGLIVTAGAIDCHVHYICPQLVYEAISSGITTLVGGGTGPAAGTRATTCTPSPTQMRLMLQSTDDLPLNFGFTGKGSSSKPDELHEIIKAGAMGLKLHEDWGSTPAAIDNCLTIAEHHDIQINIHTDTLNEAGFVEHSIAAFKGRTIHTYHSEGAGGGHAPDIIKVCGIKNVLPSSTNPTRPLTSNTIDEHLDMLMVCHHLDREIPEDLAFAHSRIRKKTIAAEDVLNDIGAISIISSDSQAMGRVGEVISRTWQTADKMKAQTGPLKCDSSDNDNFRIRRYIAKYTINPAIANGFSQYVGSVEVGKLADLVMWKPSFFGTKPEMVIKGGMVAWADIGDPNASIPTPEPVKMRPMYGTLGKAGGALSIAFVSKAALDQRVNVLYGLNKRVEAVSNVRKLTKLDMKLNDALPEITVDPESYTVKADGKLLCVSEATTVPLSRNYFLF

Procedure for Metal chelating assay: as §2, §3

C[C@H]1O[C@H](O[C@H]2[C@H](O)[C@@H](O)[C@@H](O[C@H]3[C@H](O)[C@@H](O)C(O)O[C@@H]3CO)O[C@@H]2CO)[C@H](O)[C@@H](O)[C@@H]1N[C@H]1C=C(CO)[C@@H](O)[C@H](O)[C@H]1O (stereo partly drawn) [Acarbose]
α-glucosidase Inhibition (%) (α-glucosidase): 56.70 ± 0.75% | inhibition at 200 µg/mL (α-amylase): 82.1 ± 0.27%

COc1ccc(O)c(C(C)(C)C)c1 [BHA, butylated hydroxyanisole]
ABTS assay IC50 [1]: 12.70 ± 0.10 mg/L | ABTS assay Inhibition (%) [1]: 88.93 ± 0.21% | DPPH assay IC50 [2]: 19.50 ± 0.30 mg/L | DPPH assay Inhibition (%) [2]: 87.90 ± 0.44% | CUPRAC assay Absorbance [3]: 2.45 ± 0.07 | CUPRAC assay A0.50 [3]: 25.40 ± 0.42 µg/mL | β-Carotene-linoleic acid assay IC50 [4]: 1.50 ± 0.03 mg/L | β-Carotene-linoleic acid assay Inhibition (%) [4]: 96.20 ± 0.28%

O=C(O)CN(CCN(CC(=O)O)CC(=O)O)CC(=O)O [EDTA, ethylenediaminetetraacetic acid]
Metal chelating assay IC50 (Metal chelating assay): 5.50 ± 0.25 mg/L | Metal chelating assay Inhibition (%) (Metal chelating assay; at 200 µg/mL): 94.40 ± 0.35%

COc1ccc2c3c1O[C@H]1C[C@@H](O)C=C[C@@]31CCN(C)C2 [Galantamine, galantamine]
inhibition at 200 µg/mL (BChE): 79.43 ± 0.6%

O=c1cc(CO)occ1O [Kojic acid]
Tyrosinase inhibitory Inhibition (%) (tyrosinase): 83.54 ± 0.56%

NC(N)=S [Thiourea, thiourea]
Urease inhibitory IC50 (urease): 8.20 ± 0.36 mg/L | Urease inhibitory Inhibition (%) (urease; at 200 µg/mL): 87.37 ± 0.52%

Cc1c(C)c2c(c(C)c1O)CC[C@@](C)(CCC[C@H](C)CCC[C@H](C)CCCC(C)C)O2 [α-Tocopherol, α-tocopherol]
ABTS assay IC50 [1]: 34.75 ± 0.55 mg/L | ABTS assay Inhibition (%) [1]: 83.63 ± 0.34% | DPPH assay IC50 [2]: 38.20 ± 0.50 mg/L | DPPH assay Inhibition (%) [2]: 84.25 ± 0.36% | CUPRAC assay Absorbance [3]: 0.88 ± 0.03 | CUPRAC assay A0.50 [3]: 60.45 ± 0.30 µg/mL | β-Carotene-linoleic acid assay IC50 [4]: 2.10 ± 0.05 mg/L | β-Carotene-linoleic acid assay Inhibition (%) [4]: 95.73 ± 0.44%
